Experimental data: ChEMBL document CHEMBL4813927, “Discovery of Venturicidin Congeners and Identification of the Biosynthetic Gene Cluster from Streptomyces sp. NRRL S-4” (J Nat Prod, 2021)
Counter-ions that a name gives are not always drawn.

Key:
MV4-11 = experiment: Cytotoxicity against human MV4-11 cells assessed as inhibition of cell growth measured after 72 hrs by Celltiter-Glo assay; type: functional, cell-based; settings: MV4-11, 72 h
MDA-MB-468 = experiment: Cytotoxicity against human MDA-MB-468 cells assessed as inhibition of cell growth measured after 72 hrs by Celltiter-Glo assay; type: functional, cell-based; settings: MDA-MB-468, 72 h
B16 = experiment: Cytotoxicity against mouse B16 cells assessed as inhibition of cell growth measured after 72 hrs by Celltiter-Glo assay; type: functional, cell-based; settings: B16, 72 h
[1] = target: T1, Receptor-type tyrosine-protein kinase FLT3 (Homo sapiens, UniProt P36888); experiment: Inhibition of FLT3 (unknown origin) using MBP as substrate incubated for 40 mins in presence of ATP by ADP-Glo assay
T1 sequence (P36888 whole entry): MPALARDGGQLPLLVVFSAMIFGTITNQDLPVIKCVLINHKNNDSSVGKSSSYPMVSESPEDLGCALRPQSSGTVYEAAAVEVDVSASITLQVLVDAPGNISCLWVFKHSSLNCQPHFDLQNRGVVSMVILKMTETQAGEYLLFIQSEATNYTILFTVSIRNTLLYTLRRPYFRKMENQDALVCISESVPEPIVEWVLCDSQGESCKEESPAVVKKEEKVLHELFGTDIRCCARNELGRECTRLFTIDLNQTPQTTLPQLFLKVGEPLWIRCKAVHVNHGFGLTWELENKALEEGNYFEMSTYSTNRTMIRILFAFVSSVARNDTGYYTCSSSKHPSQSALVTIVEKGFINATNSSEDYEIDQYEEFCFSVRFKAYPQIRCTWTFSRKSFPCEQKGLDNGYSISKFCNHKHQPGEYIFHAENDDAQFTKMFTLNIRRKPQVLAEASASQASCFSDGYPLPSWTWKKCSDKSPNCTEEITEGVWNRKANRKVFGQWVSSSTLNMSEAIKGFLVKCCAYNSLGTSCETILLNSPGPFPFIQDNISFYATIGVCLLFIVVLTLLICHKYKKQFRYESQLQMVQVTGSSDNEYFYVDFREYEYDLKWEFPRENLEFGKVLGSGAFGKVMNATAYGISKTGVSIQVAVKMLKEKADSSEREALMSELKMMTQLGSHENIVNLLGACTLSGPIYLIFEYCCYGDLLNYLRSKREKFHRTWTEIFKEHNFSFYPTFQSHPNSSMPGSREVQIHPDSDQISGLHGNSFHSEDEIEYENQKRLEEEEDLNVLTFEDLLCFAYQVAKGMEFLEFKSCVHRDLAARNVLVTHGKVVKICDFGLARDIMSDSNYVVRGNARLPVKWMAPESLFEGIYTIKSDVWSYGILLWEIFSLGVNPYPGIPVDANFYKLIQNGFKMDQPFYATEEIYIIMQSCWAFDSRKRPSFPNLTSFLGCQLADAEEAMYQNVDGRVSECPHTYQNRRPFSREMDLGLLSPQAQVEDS

K562 = experiment: Cytotoxicity against human K562 cells assessed as inhibition of cell growth measured after 72 hrs by Celltiter-Glo assay; type: functional, cell-based; settings: K562, 72 h
Hep 3B2 = experiment: Cytotoxicity against human Hep3B cells assessed as inhibition of cell growth measured after 72 hrs by Celltiter-Glo assay; type: functional, cell-based

Structure (SMILES)	IC50 (MV4-11) [µM]	other results
CCC(=O)[C@@H](C)[C@@H](O)[C@H](C)C[C@@H](C)[C@H]1OC(=O)C[C@@]2(OC)CC=C(C)[C@H](O2)/C(C)=C/CCC[C@@H](O[C@H]2C[C@@H](OC(N)=O)[C@H](O)[C@@H](C)O2)/C=C/[C@H](C)C[C@H]1C	4.1	
CCC(=O)[C@@H](C)[C@@H](O)[C@H](C)C[C@@H](C)[C@H]1OC(=O)C[C@@]2(O)CC=C(C)[C@H](O2)/C(C)=C/CCC[C@@H](O[C@H]2C[C@@H](OC(N)=O)[C@H](O)[C@@H](C)O2)/C=C/[C@H](C)C[C@H]1C	0.09	IC50 (MDA-MB-468): 8.3 µM; IC50 (B16): 12 µM; IC50 [1]: 64 µM; IC50 (K562): 5.8 µM; IC50 (Hep 3B2): 15 µM
CCC(=O)[C@@H](C)[C@H](O)[C@H](C)C[C@@H](C)[C@H]1OC(=O)C[C@@]2(O)CC=C(C)[C@H](O2)/C(C)=C/CCC[C@@H](O[C@H]2C[C@@H](OC(N)=O)[C@H](O)[C@@H](C)O2)/C=C/[C@H](C)C[C@H]1C	60	
CCC(=O)[C@@H](C)[C@@H](O)[C@H](C)C[C@@H](C)[C@H]1OC(=O)C[C@@]2(O)CC[C@H](C)[C@H](O2)/C(C)=C/CCC[C@@H](O[C@H]2C[C@@H](OC(N)=O)[C@H](O)[C@@H](C)O2)/C=C/[C@H](C)C[C@H]1C	0.94	
COc1cccc2c1C(=O)c1c(O)c3c(c(O)c1C2=O)C[C@@](O)(C(=O)CO)C[C@@H]3O[C@H]1C[C@H](N)[C@H](O)[C@H](C)O1 [DOXORUBICIN HYDROCHLORIDE]	0.14	
